Columns and labels:
[1] = tested on: T. cruzi Tulahuen trypomastigotes; experiment: T. cruzi trypomastigote assay (Cell Titer-Glo viability, ATP luminescence); format: cell-based, Trypanosoma cruzi; conditions: for Trypomastigotes pIC50 48 hours: 48 hours incubation; for Trypomastigotes pIC50 48 hours / Trypomastigotes pIC50 72 hours: pIC50 = -log10 IC50 in molar units; for Trypomastigotes pIC50 72 hours: 72 hours incubation; for 72 pIC50 (trypomastigotes, raw data of Fig 1D): 72 hours, plotted values, censored values given without sign; for 48 pIC50 / 72 pIC50: trypomastigote assay; for 48 pIC50: 48 h; for 72 pIC50: 72 h
Outline: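 Tulahuen trypomastigotes from infected LLC-MK2 culture supernatants (days 5–8) plated at 5 × 10^4 per well in DMEM/2% FBS with compound at 5 μM single-shot final or in dose response. Viability by CellTiter-Glo ATP luminescence after 10 min at room temperature, normalised to no-cell (100%) and DMSO (0%) controls.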

TcCYP51 = conditions: formerly reported; cited from earlier work
[2] = tested on: T. cruzi intracellular amastigotes in H9c2 cells; experiment: Rate-of-Kill (RoK) high-content imaging assay, amastigotes per cell (AM/CELL) and curve descriptors; format: cell-based, Trypanosoma cruzi; set-up: key to ME_24h / ME_48h / ME_72h: % reduction in parasite burden (cidal response); t50pct_MCC50 / t50pct_Cmax: unit not given here; conditions: for ME_24h: 24h; for ME_48h: 48h; for ME_72h: 72h; for tlag_Cmax / t50pct_Cmax / t50%_Cmax: at Cmax; for ME_24h (%): maximum effect at 24 h; for ME_24h (%) / ME_48h (%) / ME_72h (%): RoK assay; for ME_48h (%): maximum effect at 48 h; for ME_72h (%): maximum effect at 72 h; for ME 24h (maximum effect at 24 hours, intracellular amastigotes): maximum percentage of parasite burden reduction reached by any concentration
Outline: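 H9c2 cardiomyocytes infected with T. cruzi trypomastigotes (MOI 8, 18 h), then compounds tested at 5 μM single shot or 11-point 1/3 dilution from 50 μM. DRAQ5-stained nuclei imaged over a time course. Amastigotes per cell normalised to infected cells at 4 h (0%) and non-infected cells (100%).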

SMILES | Trypomastigotes pIC50 48 hours [1] | Trypomastigotes pIC50 72 hours [1] | CYP51 pIC50 (TcCYP51) | ME_24h ([2]; figure 5) | ME_48h ([2]; figure 5) | ME_72h ([2]; figure 5) | MCCE ([2]; RoK curve descriptor) | AM/CELL NORM ([2]; Time 4, sheet figure 4 A) | AM/CELL NORM ([2]; Time 24, sheet figure 4 A) | AM/CELL NORM ([2]; Time 48, sheet figure 4 A) | tlag_Cmax [2] | t50pct_Cmax ([2]; figure 5) | tlag_Cmax ([2]; figure 5) | t50pct_MCC50 ([2]; at MCC50, figure 5) | tlag_MCC50 ([2]; at MCC50, figure 5) | MCCE ([2]; figure 5) | ME_24h (%) [2] | ME_48h (%) [2] | ME_72h (%) [2] | ME 24h (maximum effect at 24 hours, intracellular amastigotes) [2] | also measured
O=C(NCCc1ccccc1Cl)c1cccn1-c1cccnc1 [TCMDC-143253] | < 4.3 | < 4.3 | 7.1 | -106.211 | -219.247 | 24.5352 | 0.6 µM | -14.0913 | -106.211 | -401.6 | 48.0 h | 72 | 48 | 72 | 72 | 0.6173 | -106.2% | -219.3% | 24.5% | -106.211% | 72 pIC50 (trypomastigotes, raw data of Fig 1D) [1]: < 4.3; 48 pIC50 ([1]; figure 1A): < 4.3; 72 pIC50 ([1]; figure 1A): < 4.3; 72 pIC50 ([1]; figure 1B): < 4.3; AM/CELL NORM ([2]; Time 72, sheet figure 4 A): -120.948; MCC50 ([2]; figure 5): 50 µM
O=C(NCCc1cccnc1)c1csc(-c2ccccc2)n1 [TCMDC-143203] | < 4.3 | < 4.3 | 7.2 | -222.428 | -89.2348 | 54.0545 | 0.6 µM | 2.597 | -179.486 | -77.3027 | 24.0 h | 72 | 24 | 72 | 48 | 0.6173 | -222.4% | -89.2% | 54.1% | -177.566% | 72 pIC50 (trypomastigotes, raw data of Fig 1D) [1]: < 4.3; 48 pIC50 ([1]; figure 1A): < 4.3; 72 pIC50 ([1]; figure 1A): < 4.3; 72 pIC50 ([1]; figure 1B): < 4.3; MCC50 ([2]; RoK curve descriptor): 5.6 µM; AM/CELL NORM ([2]; Time 72, sheet figure 4 A): 80.8727; t50%_Cmax [2]: 72.0 h; t50%_MCC50 ([2]; at MCC50): 72.0 h; tlag_MCC50 ([2]; at MCC50): 24.0 h; MCC50 ([2]; figure 5, in µM): 27.7778
COc1ccc(S(=O)(=O)NC(C)C)cc1Nc1ncc(-c2cccc(F)c2)cn1 [TCMDC-143248] | < 4.3 | < 4.3 | < 4 | -143.559 | -20.0816 | 54.2238 | 0.6 µM | -6.932 | -311.598 | -64.9455 | 24.0 h | 72 | 24 | 72 | 48 | 0.6173 | -143.6% | -20.1% | 54.2% | -47.9652% | 72 pIC50 (trypomastigotes, raw data of Fig 1D) [1]: < 4.3; 48 pIC50 ([1]; figure 1A): < 4.3; 72 pIC50 ([1]; figure 1A): < 4.3; 72 pIC50 ([1]; figure 1B): < 4.3; MCC50 ([2]; RoK curve descriptor): 50.0 µM; AM/CELL NORM ([2]; Time 72, sheet figure 4 A): 9.4251; t50%_Cmax [2]: 72.0 h; t50%_MCC50 ([2]; at MCC50): 72.0 h; tlag_MCC50 ([2]; at MCC50): 24.0 h; MCC50 ([2]; figure 5): 50 µM
CS(=O)(=O)NC1CCC(Oc2cc3cnccc3cc2-c2ccsc2)CC1.O=C(O)C(F)(F)F (stereo not shown) [TCMDC-143302] | 4.5 | < 4.3 | 7.6 | 1.036 | 27.0388 | 21.5908 | 0.6 µM | -2.284 | 1.036 | 27.0388 | 4.0 h | 72 | 4 | 72 | 72 | 0.6173 | 1.0% | 27.0% | 21.6% | 1.036% | AM/CELL NORM ([2]; Time 72, sheet figure 4 A): -4.309; MCC50 ([2]; figure 5): 50 µM
CCN(C)Cc1ccc(N2CCC(NS(=O)(=O)c3ccc4c(c3)CCO4)CC2)nc1 [TCMDC-143244] | < 4.3 | < 4.3 | < 4 | -27.3777 | 29.749 | 55.3707 | 5.6 µM | 16.0918 |  |  | 24.0 h | 72 | 24 | 72 | 48 | 5.556 | -27.4% | 29.8% | 55.4% | -2.6188% | 72 pIC50 (trypomastigotes, raw data of Fig 1D) [1]: < 4.3; 48 pIC50 ([1]; figure 1A): < 4.3; 72 pIC50 ([1]; figure 1A): < 4.3; 72 pIC50 ([1]; figure 1B): < 4.3; MCC50 ([2]; RoK curve descriptor): 5.6 µM; AM/CELL NORM ([2]; Time 24, figure 4 A): -52.1365; AM/CELL NORM ([2]; Time 48, figure 4 A): 10.0549; AM/CELL NORM ([2]; Time 72, figure 4 A): 24.5494; t50%_Cmax [2]: 72.0 h; t50%_MCC50 ([2]; at MCC50): 72.0 h; tlag_MCC50 ([2]; at MCC50): 24.0 h; MCC50 ([2]; figure 5, in µM): 27.7778
Cc1cccnc1CN1CCN(CCCOc2ccc(-c3ccc(C(N)=O)cc3)cc2)CC1 [TCMDC-143291] | 4.8 | 4.4 | < 4 | -149.164 | -418.951 | -403.993 | 16.7 µM | 9.834 | -41.6178 | -122.335 | 48.0 h | 72 | 48 | 72 | 72 | 16.6667 | -149.2% | -419.0% | -404.0% | -41.6178% | AM/CELL NORM ([2]; Time 72, sheet figure 4 A): -107.466; MCC50 ([2]; figure 5): 50 µM

— PMC8318231, “Rate-of-Kill (RoK) assays to triage large compound sets for Chagas disease drug discovery: Application to GSK Chagas Box” (PLoS Neglected Tropical Diseases, 2021)
